# Entries after “also recorded” stand apart in the source; their conditions may differ.
# Assays:
# C57BL/6 DIO mice = assay: NRH triacetate efficacy in DIO (Diet-Induced Obesity) mice; type: in vivo
# Method: C57BL/6 DIO mice and lean controls were purchased from Taconic (Hudson, N.Y.). All mice were fed Purina 5001 chow ad libitum from weaning until 6 weeks of age, then DIO mice were fed a diet containing 60% fat, ad libitum. When the mice were 18 weeks old, dosing was begun. Mice were segregated into groups of 8, with group A receiving vehicle (1:1 (v:v) PEG400: water), group B receiving 100 mg/kg nicotinamide riboside hydride triacetate as a solution in vehicle, group C receiving 500 mg/kg nicotinamide riboside hydride triacetate as a solution in vehicle, and group D (chow-fed lean control mice) receiving vehicle. The mice were dosed once per day via oral gavage for six weeks. After three weeks of dosing, body weights, post-prandial blood glucose, and post-prandial blood insulin levels were measured using commercially available kits. After four weeks of dosing, fasted blood glucose and fasted blood insulin levels were measured. Nicotinamide riboside and NAD levels were measured after four weeks of dosing, using the same extraction and LCMS protocol as described in Example 21 with NAD giving an LC retention time=2.5 min, MS Q1 peak, m/z=664(M+H)+, Q3 peak, m/z=428 (M-Cl1H13N2O4). Statistical analysis was performed using one-way ANOVA, and Dunnett's post test.
# Chow-fed mice were used as non-diabetic controls.
# [1] = Plasma hydrolysis of nicotinamide riboside analogs to NR (incubation with rat plasma, LC/MS/MS); type: in vitro ADME; conditions: 10 mM, incubated 30 min at 37° C.
# Method: Compounds were diluted with rat plasma to a concentration of 10 millimolar (mM). Samples were incubated for 30 min at 37° C., taking 50 microL aliquots for analysis at 0 and 30 min. The aliquots were loaded onto a deep 96 well plate, then 350 microL of 0.1% (v:v) formic acid in acetonitrile was added to each well. The plate was covered and sealed to prevent evaporation, then it was placed on an orbital plate shaker set to 800-900 rps for 5-10 minutes. Next, the plate was centrifuged at around 3000 rpm for 5 min to provide a clear supernatant. For LC/MS/MS analysis, 200 microL of supernatant from each well was transferred onto a clean plate, which was subsequently capped and placed into an autosampler.
# (§1) LCMS Conditions. For each well, a 10 microL sample was injected via autosampler onto a Chromolithe Performance, RP-18e (100×4.6 mm) column, and eluted with a binary gradient. Solvent A=0.1% formic acid, 0.1% N,N-dibutyl-N-methylamine (DBME) in 2 mM aqueous ammonium acetate (1:1:1000 v:v:v). Solvent B=0.1% formic acid in acetonitrile (1:1000 v:v). The solvent gradient was as follows: 0-0.22 min, 95:5 A:B; […], 95:5 A:B to 30:70 A:B (linear gradient); 5.05-6.05 min, 30:70 A:B; 6.05-6.60 min, 30:70 A:B to 95:5 A:B (linear gradient); 6.60-7.15 min, 95:5 A:B; stop elution at 7.15 min. Nicotinamide riboside eluted at approximately 1.7 min. A triple-quadrupole mass spectrometer was employed for peak identification. The identity of the analyte was confirmed by MS observation of a Q1 peak at m/z=255 (M)^+, and a Q3 peak at m/z=123.1 (M-C5H8O4)^+.
# The results are shown in FIG. 3, with the release of free nicotinamide riboside measured using by HPLC-MS at 0, 30, and 60 minute time points (columns 5, 6, and 7 of table shown in FIG. 3). For each of NR esters in Table 3, except nicotinamide riboside tribenzoate, nicotinamide riboside was detected at the 30 minute time point.
# [2] = Gravimetric Vapor Sorption (GVS); type: physicochemical; conditions: 90% RH, 25° C.
# Method: Gravimetric Vapor Sorption (GVS): Samples were analyzed using a VTI corporation (now part of TA Instruments) SGA-100 with Cahn microbalance equipped with quartz sample and reference pans. Samples were dried in the SGA-100 under dry nitrogen for 5 hours at 25° C. followed by a moisture absorption step ramp from 5% relative humidity (RH) to 95% or 90% RH followed by a desorption step ramp back to 5% or 10% RH (all steps at 25° C.). The samples were held at each % RH step for 4 hours.
# [3] = Plasma/blood nicotinamide riboside levels in orally dosed mice (LCMS); type: in vivo; conditions: oral gavage 500 mg/kg in PBS; for plasma nicotinamide riboside levels: both 2 h and 6 h post-dose
# Method: Compounds were suspended in phospho-buffered saline (PBS) solution at 125 mg/mL. Eight mice were dosed via oral gavage with study compound at 500 mg/kg, (20 mg compound in 160 microL of PBS for a 40 g mouse). Four mice were euthanized via CO2 asphyxiation at 2 h post-dose, then the remaining four were euthanized at 6 h post-dose, and blood was collected immediately following euthanasia via cardiac puncture, orbital bleed, or tail vein nick. Approximately 600 microL of blood was collected from each mouse. The blood samples were diluted with 5 volumes of 70% (1% sulfosalicylic acid/1 microM DTE/10 microM CD-38 inhibitor)/30% (37% 10 mM aqueous ammonium bicarbonate/63% acetonitrile). The mixture was vortexed, then centrifuged at 3000 rpm for 10 min at 4° C. to give a transparent supernatant. A 10 microL portion of the supernatant was analyzed by LCMS, using the conditions below.
# as §1, with “injected” for “injected via autosampler”, “A:B;” for “A:B; stop”, “elution was stopped” for “elution”, “(M)+,” for “(M)^+,”
# In the bar graph in FIG. 5, compounds are shown on the x-axis, and comparative LCMS signal is shown on the y-axis; with each compound dosed in mice at 500 mg study compound per 1000 g mouse as a solution or suspension in phospho-buffered saline solution (PBS) (A=blank control (PBS), B=nicotinic acid riboside hydride ethyl ester triacetate, C=Nicotinamide riboside hydride triisobutyrate, D=Nicotinamide riboside hydride tri-n-butyrate, E=Nicotinamide riboside hydride tripropionate, F=nicotinamide riboside hydride tribenzoate). As shown, samples were taken 2 hours and 6 hours post dose. Also as shown, samples were kept cold (4° C.) or at room temperature (approximately 23° C.) before analysis.
# HaCaT cells = assay: H2O2-induced reactive oxygen species (ROS) in HaCaT cells (CellROX deep red); type: cell-based, human
# Method: HaCaT cells were grown as described in example 23 and were seeded in 96-well plates (Nunc™ black with optical bottom, Thermo Fisher Scientific, Inc., Waltham, Mass.) with a density at 2×10^4 cells per well and 100 μl medium in each well, and grown overnight before treatments. Stock solutions of NRH and other test compounds were prepared and diluted to 2× of final treatment concentrations in DMEM medium in 96-well storage plate as indicated in the FIG. 11. HaCaT Cells were treated in triplicates by adding 100 μl of diluted solutions of test compounds (2×) to each well containing 100 μl medium already. Cells were incubated in the presence of test compounds for 3 hrs. At the end of 3 hr incubation, cells were washed once with 200 μl DPBS with Ca^++ and Mg^++ (Life Technologies) and then fed with 100 μl DMEM medium each well containing H2O2 at 250 μM (as a ROS (reactive oxygen species) inducer, Sigma). After 30 min incubation, cells were washed once with 200 μl DPBS with Ca^++ and Mg^++ and CellROX deep red reagent (2.5 mM stock solution, Life Technologies) was added to the medium to a final concentration of 5 μM. After 1 hr incubation at 37° C., 5% CO2, Cells were washed for 3 times with DPBS, fluorescence signal was read at Ex. 640 nm and Em. 665 nm in Biotek Synergy H4 microplate reader (BioTek, Winooski, Vt.). Untreated cells were served as controls (normalized to 1). All the treated samples were normalized to the untreated control.
# [4] = 100 and 500 mg/kg once per day orally, after four weeks of dosing
# [5] = oral gavage once per day 100 or 500 mg/kg, post-prandial, after three weeks of dosing
SMILES,conversion to free nicotinamide riboside [1],plasma nicotinamide riboside levels [3],further results
"CC(=O)OC[C@H]1O[C@@H](N2C=CCC(C(N)=O)=C2)[C@H](OC(C)=O)[C@@H]1OC(C)=O [NRH triacetate, (2R,3R,4R,5R)-2-(acetoxymethyl)-5-(3-carbamoylpyridin-1(4H)-yl)tetrahydrofuran-3,4-diyl diacetate]",converted to free nicotinamide riboside to a significant degree,,blood NAD levels (C57BL/6 DIO mice; [4]): rose in a dose-dependent manner; also recorded: rise in a NRH-triacetate dose-dependent manner; blood nicotinamide riboside levels (C57BL/6 DIO mice; [4]): rose in a dose-dependent manner; also recorded: rise in a NRH-triacetate dose-dependent manner; blood glucose levels (C57BL/6 DIO mice; [5]): reduced; blood insulin levels (C57BL/6 DIO mice; [5]): reduced; GVS weight gain from the dried state [2]: greater than 12%
"CCCC(=O)OC[C@H]1O[C@@H](N2C=CCC(C(N)=O)=C2)[C@H](OC(=O)CCC)[C@@H]1OC(=O)CCC [NRH tributyrate, (2R,3R,4R,5R)-2-((butyryloxy)methyl)-5-(3-carbamoylpyridin-1(4H)-yl)tetrahydrofuran-3,4-diyl dibutyrate]",converted to free nicotinamide riboside to a significant degree,raised plasma nicotinamide riboside levels substantially,
"NC(=O)C1=CN([C@@H]2O[C@H](COC(=O)c3ccccc3)[C@@H](OC(=O)c3ccccc3)[C@H]2OC(=O)c2ccccc2)C=CC1 [NRH tribenzoate, (2R,3R,4R,5R)-2-((benzoyloxy)methyl)-5-(3-carbamoylpyridin-1(4H)-yl)tetrahydrofuran-3,4-diyl dibenzoate]",not significantly converted to free nicotinamide riboside,,nicotinamide riboside level ([3]; 2 h post-dose): only a very modest increase
"CCC(=O)OC[C@H]1O[C@@H](N2C=CCC(C(N)=O)=C2)[C@H](OC(=O)CC)[C@@H]1OC(=O)CC [NRH tripropionate, (2R,3R,4R,5R)-2-(3-carbamoylpyridin-1(4H)-yl)-5 ((propionyloxy)methyl) tetrahydrofuran-3,4-diyl dipropionate]",converted to free nicotinamide riboside to a significant degree,raised plasma nicotinamide riboside levels substantially,
OCCc1ccc(O)c(O)c1 [Hydroxyterosol],,,"H2O2-induced ROS (HaCaT cells; 3 hr pre-incubation then 250 μM H2O2, Hydroxyterosol 0.005%, niacinamide 4.5 mM, NRH several concentrations): reduced H2O2-induced ROS"
OO [Example H2O2],,,"level of ROS (HaCaT cells; 250 μM H2O2, 30 min, normalized to untreated control): ~6 fold"
"CC(C)C(=O)OC[C@H]1O[C@@H](N2C=CCC(C(N)=O)=C2)[C@H](OC(=O)C(C)C)[C@@H]1OC(=O)C(C)C [NRH triisobutyrate, (2R,3R,4R,5R)-2-(3-carbamoylpyridin-1(4H)-yl)-5-((isobutyryloxy)methyl)-tetrahydrofuran-3,4-diyl bis(2-methylpropanoate)]",converted to free nicotinamide riboside to a significant degree,raised plasma nicotinamide riboside levels substantially,
